In BindingDB's records for doi:10.7270/Q2DV1HSV (Jishou University, 2017):
pIC50: −log10 of the molar value.

The molecules below were run against Alpha-glucosidase MAL32 (Saccharomyces cerevisiae (strain ATCC 204508 / S288c), UniProt P38158) (assay: In Vitro α-Glucosidase Inhibitory Assay). Conditions: pH 6.8; 37 °C.
Experimental: The α-glucosidase inhibition assay had been carried out using baker's yeast α-glucosidase (EC 3.2.1.20) and p-nitrophenyl α-d-glucopyranoside. The test compounds were dissolved in DMSO to prepare the required distributing concentration. α-Glucosidase inhibitory activity was assayed by using 0.1 M phosphate buffer (pH 6.8) at 37 °C. The enzyme (0.1 U/mL) in phosphate buffer saline was incubated with various concentrations of test compounds at 37 °C for 15 min. […] After further incubation at 37 °C for 30 min. […] The sample solution was replaced by DMSO as a control. Acarbose was used as a positive control. All experiments were carried out in triplicates.

Alpha-glucosidase MAL32, sequence (P38158 whole entry): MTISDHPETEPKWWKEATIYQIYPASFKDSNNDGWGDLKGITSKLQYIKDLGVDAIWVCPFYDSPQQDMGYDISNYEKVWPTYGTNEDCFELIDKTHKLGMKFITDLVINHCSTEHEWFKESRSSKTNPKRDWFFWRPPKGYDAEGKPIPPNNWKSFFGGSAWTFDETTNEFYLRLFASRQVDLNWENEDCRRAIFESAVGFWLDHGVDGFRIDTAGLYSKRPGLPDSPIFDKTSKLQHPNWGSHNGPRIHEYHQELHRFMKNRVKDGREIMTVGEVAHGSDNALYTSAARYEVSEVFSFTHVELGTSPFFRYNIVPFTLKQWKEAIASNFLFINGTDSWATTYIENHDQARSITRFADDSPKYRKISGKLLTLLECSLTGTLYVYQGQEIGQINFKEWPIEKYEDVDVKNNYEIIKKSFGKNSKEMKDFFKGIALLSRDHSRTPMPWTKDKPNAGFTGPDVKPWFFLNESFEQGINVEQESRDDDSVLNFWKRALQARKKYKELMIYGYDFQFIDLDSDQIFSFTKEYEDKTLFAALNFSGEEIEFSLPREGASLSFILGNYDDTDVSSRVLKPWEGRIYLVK

| Compound | pIC50 |
| --- | --- |
| O=C1Nc2ccccc2C1(c1cn(Cc2ccccc2)c2ccccc12)c1cn(Cc2ccccc2)c2ccccc12 [1,1''-Dibenzyl-1H,1''H-[3,3':3',3''-terindol]-2'(1'H)-one (4f)] | 5.01 |
| CCCCn1cc(C2(c3cn(CCCC)c4ccccc34)C(=O)Nc3ccccc32)c2ccccc21 [1,1''-Dibutyl-[3,3':3',3''-terindolin]-2'-one (4m)] | 4.87 |
| CC(C)Cn1cc(C2(c3cn(CC(C)C)c4ccccc34)C(=O)Nc3ccccc32)c2ccccc21 [1,1''-Diisobutyl-[3,3':3',3''-terindolin]-2'-one (4n)] | 4.83 |
| CC(C)n1cc(C2(c3cn(C(C)C)c4ccccc34)C(=O)Nc3ccccc32)c2ccccc21 [1,1''-Diisopropyl-[3,3':3',3''-terindolin]-2'-one (4l)] | 4.99 |
| Cn1cc(C2(c3cn(C)c4ccccc34)C(=O)Nc3ccccc32)c2ccccc21 [1,1''-Dimethyl-1H,1''H-[3,3':3',3''-terindol]-2'(1'H)-one (4e)] | 4.86 |
| CCCn1cc(C2(c3cn(CCC)c4ccccc34)C(=O)Nc3ccccc32)c2ccccc21 [1,1''-Dipropyl-[3,3':3',3''-terindolin]-2'-one (4k)] | 4.96 |
| O=C1Nc2ccccc2C1(c1cn(Cc2ccccc2Cl)c2ccccc12)c1cn(Cc2ccccc2Cl)c2ccccc12 [1,1''-bis(2-Chlorobenzyl)-[3,3':3',3''-terindolin]-2'-one (4i)] | 5.14 |
| O=C1Nc2ccccc2C1(c1cn(Cc2ccccc2F)c2ccccc12)c1cn(Cc2ccccc2F)c2ccccc12 [1,1''-bis(2-Fluorobenzyl)-[3,3':3',3''-terindolin]-2'-one (4j)] | 5.22 |
| O=C1Nc2ccccc2C1(c1cn(Cc2cccc(F)c2)c2ccccc12)c1cn(Cc2cccc(F)c2)c2ccccc12 [1,1''-bis(3-Fluorobenzyl)-1H,1''H-[3,3':3',3''-terindol]-2'(1'H)-one (4g)] | 5.10 |
| O=C1Nc2ccccc2C1(c1cn(Cc2ccc(Br)cc2)c2ccccc12)c1cn(Cc2ccc(Br)cc2)c2ccccc12 [1,1''-bis(4-Bromobenzyl)-1H,1''H-[3,3':3',3''-terindol]-2'(1'H)-one (4h)] | 5.04 |
| O=C1Nc2ccccc2C1(c1c[nH]c2ccccc12)c1c[nH]c2ccccc12 [1H,1''H-[3,3':3',3''-terindol]-2'(1'H)-one (4a)] | 3.84 |
| O=C1Nc2ccc(Br)cc2C1(c1c[nH]c2ccccc12)c1c[nH]c2ccccc12 [5'-Bromo-1H,1''H-[3,3':3',3''-terindol]-2'(1'H)-one (4b)] | 4.69 |
| Cc1ccc2c(c1)C(c1c[nH]c3ccccc13)(c1c[nH]c3ccccc13)C(=O)N2 [5'-Methyl-1H,1''H-[3,3':3',3''-terindol]-2'(1'H)-one (4d)] | 4.52 |
